Experimental data published in patent publication US20260258003A1, “SLACK-ACTIVATING COMPOUNDS AND THEIR MEDICAL USE” (Johann Wolfgang Goethe-Universität Frankfurt am Main, priority 2023, published 2026).

Columns and labels:
[1] = test system: DNFB-induced persistent itch behavior of mice; assay: DNFB model of persistent itch (allergic contact dermatitis); assay type: in vivo; conditions: i.p. after the second DNFB exposure, vs vehicle
Description: Furthermore, the effect of Compound 6 in chronic itch was examined in a model of allergic contact dermatitis^31. In brief, the fur on the dorsolateral aspect of the neck was shaved under brief isoflurane anesthesia. Three to four days thereafter, the shaved skin area was painted with 100 μL of 0.15% 2,4-dinitrofluorobenzene (DNFB) in acetone/olive oil (3:1). After 10-11 days, the skin was shaved again and the DNFB solution was painted 3-4 days thereafter (i.e., two painting sessions 14 days apart). Ninety minutes after the second painting, mice were habituated for 15 min in separate plexiglass cylinders (30 cm diameter).
Compounds or vehicle (10% 2-hydroxypropyl-β-cyclodextrine in 0.9% saline) were i.p. administered, and 15 min thereafter spontaneous scratching was recorded over 30 min by videotaping (FIG. 10A).

[2] = test system: histamine-induced scratching of mice; assay: Histamine-induced acute itch model; assay type: in vivo; conditions: i.p.
Description: Further studies were conducted to assess the in vivo efficacy of Compound 6 and Compound 10 in mice. In detail, experiments were performed in 8 to 16 weeks old C57BL/6N mice (Charles River, Sulzfeld, Germany) and animals with a genetic deletion of Slack (Slack^−/− mice^27) of either sex. Animals were housed on a 12 h light/dark cycle with access to food and water ad libitum. All experiments adhered to the guidelines of the International Association for the Study of Pain and to the ARRIVE (Animal Research: Reporting on In Vivo Experiments) guidelines, and were approved by and conducted in accordance with the regulations of the local Animal Welfare authorities (Regierungspräsidium Darmstadt, Germany). All behavioral studies were conducted during the light cycle of the day at room temperature (20-24° C.) by an observer blinded for the treatment of the animals and/or their genotype.
Acute itch behavior of the mice was monitored using a histamine-based, chloroquine-based and SLIGRL-based acute itch behavior model. In these models, three to four days before the experiment day, the fur on the dorsolateral aspect of the neck was shaved under brief isoflurane anesthesia. On the testing day, mice were habituated for 30 min in separate plexiglass cylinders (30 cm diameter). […] Numbers of scratching bouts directed to the nape of the neck were assessed over 30 min by videotaping.

[3] = test system: heart rate and breath rate of mice; assay: Pulse oximetry on conscious, freely moving mice; assay type: in vivo; conditions: 10 mg/kg i.p., observation period of 30 min
Description: Finally, potential side effects of Compound 6 were assessed by measuring cardiovascular functions by pulse oximetry.

IB4-binding DRG neurons = assay: Whole-cell current-clamp recordings on IB4-binding DRG neurons; assay type: cell-based, mice; conditions: 50 μM
Description: A DRG neuron primary cell culture was prepared and stimulated with an inflammatory soup overnight to induce hyperexcitability. In brief, naïve C57BL/6N mice (age 4-8 weeks) were killed by CO2 inhalation and lumbar (L1-L5) DRGs were transferred to hanks' balanced salt solution (Gibco, Thermo Fisher Scientific). After incubation with 500 U/mL collagenase IV and 2.5 U/ml dispase II (both from Sigma Aldrich) for 60 min, including carefully shaking every 20 min, DRGs were washed and gently triturated twice with a fire-polished Pasteur pipette in neurobasal medium (Gibco, Thermo Fisher Scientific) including 10% FBS and 0.5 mM GlutMax (Gibco, Thermo Fisher Scientific). Dissociated DRGs were seeded onto poly-D-lysine-coated (100 μg/mL) coverslips and cultured in neurobasal medium supplemented with 2% B27 (Gibco, Thermo Fisher Scientific), 1% penicillin/streptomycin and 0.5 mM GlutMax in 5% CO2 at 37° C.
In order to simulate a pathological state, DRG neuronal cultures were incubated with an inflammatory soup (histamine: 10 μM, PGE2: 10 μM, serotonin: 10 μM, bradykinin: 10 μM)^33 overnight and performed recordings on cells that bind isolectin B4, a marker of nonpeptidergic C-fiber neurons including the itch-sensitive neuronal populations (NP1-NP3)^4 in mice. Before recording, DRG neurons were preincubated with 10 μg/mL FITC-conjugated IB4 (Sigma-Aldrich) for 5-10 min to select for Slack-expressing neurons.
Whole-cell current clamp recordings were obtained using an EPC 9 amplifier combined with Patchmaster software (HEKA Electronics, Lambrecht/Pfalz, Germany). General settings, pipette and extracellular solutions were used as described above. Evoked action potentials (AP) were elicited by 10 ms current injections starting at 0 pA in 20 pA increments to determine electrophysiological parameters. Action potential (AP) firing was induced by depolarizing current pulses (200-950 pA at 150 pA intervals, 1000 ms duration). […] Number of APs before and after compound application were counted at the same current injection step.

[4] = test system: SLIGRL-induced scratching behavior of mice; assay: SLIGRL-induced acute itch model; assay type: in vivo; conditions: 10 mg/kg i.p.
Description: Further studies were conducted to assess the in vivo efficacy of Compound 6 and Compound 10 in mice. In detail, experiments were performed in 8 to 16 weeks old C57BL/6N mice (Charles River, Sulzfeld, Germany) and animals with a genetic deletion of Slack (Slack^−/− mice^27) of either sex. Animals were housed on a 12 h light/dark cycle with access to food and water ad libitum. […]
Acute itch behavior of the mice was monitored using a histamine-based, chloroquine-based and SLIGRL-based acute itch behavior model. […] Numbers of scratching bouts directed to the nape of the neck were assessed over 30 min by videotaping.
Antipruritic efficacy of Compound 6 in histamine-independent itch evoked by SLIGRL injection: The chloroquine-induced scratching in mice is driven by activation of MrgprA3 in the NP2 population of sensory neurons^4,29. To further explore the antipruritic efficacy of Compound 6 in histamine-independent itch, the inventors assessed the behavioral response after s.c. injection of the peptide Ser-Leu-Ile-Gly-Arg-Leu (SLIGRL) that evokes scratching by activation of MrgprC11 (ref^30), which is expressed in the NP2 and NP3 population^4. […]

muscarine M1 receptor = muscarine M1 receptor (Homo sapiens, UniProt P11229); assay: SafetyScreen44 binding; conditions: substantial = higher than 50%
[5] = injection of small currents (0-220 pA)

Chain of muscarine M1 receptor (P11229 whole entry): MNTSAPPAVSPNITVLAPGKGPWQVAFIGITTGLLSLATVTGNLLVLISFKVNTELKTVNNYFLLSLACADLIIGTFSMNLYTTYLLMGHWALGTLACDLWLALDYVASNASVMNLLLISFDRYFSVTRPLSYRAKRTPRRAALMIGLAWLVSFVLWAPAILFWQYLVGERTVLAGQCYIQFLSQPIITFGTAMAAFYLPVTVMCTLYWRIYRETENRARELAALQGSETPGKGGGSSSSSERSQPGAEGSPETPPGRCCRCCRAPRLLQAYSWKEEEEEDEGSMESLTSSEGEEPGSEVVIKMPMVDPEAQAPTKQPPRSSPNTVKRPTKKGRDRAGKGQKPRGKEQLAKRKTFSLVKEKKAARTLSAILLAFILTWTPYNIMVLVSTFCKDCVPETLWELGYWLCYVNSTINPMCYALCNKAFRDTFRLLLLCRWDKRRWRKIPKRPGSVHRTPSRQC

O=C(O)COCCN1CCN(C2=Nc3ccccc3Oc3ccc(Cl)cc32)CC1 [Compound 6, 2-(2-(4-(2-Chlorodibenzo[b,f][1,4]oxazepin-11-yl)piperazin-1-yl)ethoxy) acetic acid]
number of head shakes, DNFB model [1]: significantly inhibited | number of scratching bouts, DNFB model [1]: significantly inhibited | scratching evoked by s.c. histamine [2]: not affected | breath rate [3]: did neither affect | heart rate [3]: did neither affect | number of AP fired (IB4-binding DRG neurons; current injections 200-950 pA, inflammatory soup overnight): profound decrease | AP amplitude (IB4-binding DRG neurons; [5]): significantly lower | rheobase (IB4-binding DRG neurons; [5]): significantly increased | SLIGRL-induced scratching behavior [4]: significantly inhibited

CN1CCN(C2=Nc3ccccc3Oc3ccc(Cl)cc32)CC1 [Loxapine, 2-chloro-11-(4-methylpiperazin-1-yl)dibenzo[b,f][1,4]oxazepine, reference compound]
inhibition at 10 µM (muscarine M1 receptor): > 50%
